Test results published in patent US4626542A, “4-(5H-dibenzo[a,d]cyclohepten-5-yl)piperidine compounds, pharmaceutical compositions and methods” (Merck & Co., Inc., priority 1984, dated 1986).

Legend:
Rat Aorta = test: Inhibition of calcium chloride-induced contraction of depolarized vascular smooth muscle segments (rat aorta); format: cell-based, rat (male Sprague-Dawley); details: 1.0 mM calcium chloride-induced contraction; for inhibition at 0.1 µM / inhibition at 0.01 µM: Rattus norvegicus, read-out: Percent Inhibition of Rat Aorta; for inhibition at 0.1 µM / Percent Inhibition of Rat Aorta: at 10^-7 M; for inhibition at 0.01 µM: at 10^-8 M
Protocol: The property may be observed in a test in which segments of vascular smooth muscle obtained from male Sprague-Dawley rats are suspended in physiological salt solution in a tissue bath instrumented for recording contractions. After the tissue has been equilibrated, washed in calcium-free physiological salt solution and then depolarized, 1.0 mM calcium chloride is re-added to induce contraction. After the contraction has reached a plateau, tissues are washed and a test compound or vehicle is added to determine the effect on a second contraction achieved by the above cyclic protocol. From measuring the initial contraction as well as the second contraction in the presence of the test compound, the extent of inhibition may be calculated. The results of these tests for representative compounds in the compositions of the present invention are seen in the following table. The results are with tests conducted at very low concentrations of 10^-7 M or less.

[1] = Isomerization of the 5H axial to the 5H equatorial isomer followed by 1H NMR; format: physicochemical; details: 3.67 milligrams in 1 milliliter CDCl3, heated at 55° C.±1° C.
Protocol: Isomerization of the 5H axial isomer of 4-(5H-dibenzo[a,d]cyclohepten-5-yl)-1-methylpiperidine to the 5H equatorial isomer was carried out in an NMR tube. 3.67 milligrams of the axial isomer was dissolved in 1 milliliter of CDCl3 at 24° C. and the sample inserted into the probe of a Nicolet NT-360 NMR spectrometer where it was heated at 55° C.±1° C. NMR spectra (^1 H) were obtained every 864 seconds until isomerization to the equatorial isomer was complete as evidenced by the disappearance of the singlet corresponding to the 5H-axial proton and appearance of the 5H-equatorial proton (about 48,727 seconds).

Row | Structure (SMILES) | inhibition at 0.1 µM (Rat Aorta) [%] | further results
1 | CN1CCC(C2c3ccccc3C=Cc3ccc(Br)cc32)CC1 (racemic) [4-(3-Bromo-5H-dibenzo[a,d]cyclohepten-5-yl)-1-methylpiperidine, equatorial isomer] | 80 | 
2 | COc1ccc2c(c1)C(C1CCN(C)CC1)c1ccccc1C=C2 (racemic) [4-(3-Methoxy-5H-dibenzo[a,d]cyclohepten-5-yl)-1-methylpiperidine] |  | inhibition at 0.01 µM (Rat Aorta): 37%
3 | CN1CCC(C2c3ccccc3C=Cc3ccc(Br)cc32)CC1 (racemic) [5H--ax (±)4-(3-Bromo-5H--dibenzo[a,d]cyclohepten-5-yl)-1-met] [4-(3-Bromo-5H-dibenzo[a,d]cyclohepten-5-yl)-1-methylpiperidine, axial isomer] |  | Percent Inhibition of Rat Aorta (Rat Aorta): 79%
4 | CN1CCC(C2c3ccccc3C=Cc3ccc(Br)cc32)CC1 (single isomer, unassigned; (+)) [5H--eq (+)4-(3-Bromo-5H--dibenzo[a,d]cyclohepten-5-yl)-1-met] [(+)-4-(3-bromo-5H-dibenzo[a,d]cyclohepten-5-yl)-1-methylpiperidine] |  | Percent Inhibition of Rat Aorta (Rat Aorta): 22%
5 | CN1CCC(C2c3ccccc3C=Cc3ccc(Br)cc32)CC1 (single isomer, unassigned; (-)) [5H--eq (-)4-(3-Bromo-5H--dibenzo[a,d]cyclohepten-5-yl)-1-met] [(-)-4-(3-bromo-5H-dibenzo[a,d]cyclohepten-5-yl)-1-methylpiperidine] |  | Percent Inhibition of Rat Aorta (Rat Aorta): 92%
6 | C1=Cc2ccccc2C(C2CCN(C3CCCCC3)CC2)c2ccccc21 [4-(5H-Dibenzo[a,d]cyclohepten-5-yl)-1-cyclohexylpiperidine] | 48 | 
7 | CC(C)N1CCC(C2c3ccccc3C=Cc3ccccc32)CC1 [4-(5H-Dibenzo[a,d]cyclohepten-5-yl)-1-isopropylpiperidine] | 44 | 
8 | CN1CCC(C2c3ccccc3C=Cc3ccccc32)CC1 [4-(5H-Dibenzo[a,d]cyclohepten-5-yl)-1-methylpiperidine, axial isomer] | 30 | time until isomerization to the equatorial isomer was complete [1]: about 48,727 seconds
9 | CN1CCC(C2c3ccccc3C=Cc3ccccc32)CC1 [4-(5H-Dibenzo[a,d]cyclohepten-5-yl)-1-methylpiperidine, equatorial isomer] |  | inhibition at 0.01 µM (Rat Aorta): 11%
10 | C[N+]1([O-])CCC(C2c3ccccc3C=Cc3ccccc32)CC1 (stereo not drawn) [4-(5H-Dibenzo[a,d]cyclohepten-5-yl)-1-methylpiperidine-1-oxide monohydrate] | 17 | 
11 | C1=Cc2ccccc2C(C2CCNCC2)c2ccccc21 [4-(5H-Dibenzo[a,d]cyclohepten-5-yl)piperidine] | 39 | 
